Results as given in patent US8741940B2, “Microbicidal composition” (Rohm and Haas Company, priority 2005, dated 2014).
Several values for one entry are separate records, joined by “and”; a condition that tells them apart may be missing. Equal entries are not always repeated. Where two headings read alike, the source gives them in different places.

Assays:
Assay type in all cases: cell-based
Details in all cases: for Qa (concentration of MBIT producing the end point, MIC): alone where Qb = 0, otherwise in the mixture
[1] = test system: Candida albicans (C. albicans—ATCC 10231); experiment: Synergy test, microtiter plate high resolution MIC assay, yeast in PDB medium; design: Qb (Second Component B) / Qa (First Component A): unit: ppm
Summary of the method: (§1)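 High-resolution microtiter MICs spanned 2 to 10,000 ppm active, tested alongside varying BBIT or MBIT as component A. E. coli was run at ~5×10^6/mL in M9GY (0.2% glucose, 0.1% yeast extract) at 30 °C; C. albicans and A. niger at 5×10^5/mL in PDB. Synergy index is Qa/QA + Qb/QB, with >1 indicating antagonism.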

[2] = test system: Aspergillus niger (A. niger—ATCC 16404); experiment: Synergy test, microtiter plate high resolution MIC assay, mold in PDB medium; design: Qb (Second Component B) / Qa (First Component A): unit: ppm
Summary of the method: as §1

[3] = test system: Escherichia coli (E. coli—ATCC #8739); experiment: Synergy test, microtiter plate high resolution MIC assay, bacterium in M9GY medium; design: Qa (First Component A) / Qb (Second Component B): unit: ppm
Summary of the method: as §1

[4] = A=MBIT, B=2-bromo-2-nitro-propane-1,3-diol (BNPD), C. albicans 10231 - PDB, 24 hours
[5] = A=MBIT, B=BBIT, C. albicans 10231 - PDB, 48 hours
[6] = A=MBIT, B=Benzalkonium chloride (Hyamine 3500), C. albicans 10231 - PDB, 24 hours
[7] = A=MBIT, B=Benzisothiazolinone (BIT), C. albicans 10231 - PDB, 48 hours
[8] = A=MBIT, B=Benzyl alcohol, C. albicans 10231 - PDB, 48 hours
[9] = A=MBIT, B=Caprylyl glycol, C. albicans 10231 - PDB, 24 hours
[10] = A=MBIT, B=Chlorphenesin, C. albicans 10231 - PDB, 72 hours
[11] = A=MBIT, B=DMDM Hydantoin (DMDMH), C. albicans 10231 - PDB, 24 hours
[12] = A=MBIT, B=dithio-2,2′-bis(N-methylbenzamide) (DTBMA), C. albicans 10231 - PDB, 24 hours
[13] = C. albicans 10231, PDB, 24 hours
[14] = C. albicans 10231, PDB, 48 hours
[15] = C. albicans 10231, PDB, 72 hours
[16] = A=MBIT, B=2-bromo-2-nitro-propane-1,3-diol (BNPD), A. niger 16404 - PDB, 4 days
[17] = A=MBIT, B=BBIT, A. niger 16404 - PDB, 4 days
[18] = A=MBIT, B=Benzalkonium chloride (Hyamine 3500), A. niger 16404 - PDB, 4 days
[19] = A=MBIT, B=Benzisothiazolinone (BIT), A. niger 16404 - PDB, 7 days
[20] = A=MBIT, B=Benzyl alcohol, A. niger 16404 - PDB, 4 days
[21] = A=MBIT, B=Caprylyl glycol, A. niger 16404 - PDB, 4 days
[22] = A=MBIT, B=Chlorphenesin, A. niger 16404 - PDB, 3 days
[23] = A=MBIT, B=DMDM Hydantoin (DMDMH), A. niger 16404 - PDB, 3 days
[24] = A=MBIT, B=dithio-2,2′-bis(N-methylbenzamide) (DTBMA), A. niger 16404 - PDB, 3 days
[25] = A=MBIT, B=2-bromo-2-nitro-propane-1,3-diol (BNPD), E. coli 8739 - M9GY, 24 hours
[26] = A=MBIT, B=BBIT, E. coli 8739 - M9GY, 24 hours
[27] = A=MBIT, B=Benzalkonium chloride (Hyamine 3500), E. coli 8739 - M9GY, 24 hours
[28] = A=MBIT, B=Benzisothiazolinone (BIT), E. coli 8739 - M9GY, 24 hours
[29] = A=MBIT, B=Benzyl alcohol, E. coli 8739 - M9GY, 24 hours
[30] = A=MBIT, B=Caprylyl glycol, E. coli 8739 - M9GY, 24 hours
[31] = A=MBIT, B=Chlorphenesin, E. coli 8739 - M9GY, 24 hours
[32] = A=MBIT, B=DMDM Hydantoin (DMDMH), E. coli 8739 - M9GY, 24 hours
[33] = A=MBIT, B=dithio-2,2′-bis(N-methylbenzamide) (DTBMA), E. coli 8739 - M9GY, 24 hours

Cn1sc2ccccc2c1=O [MBIT, N-methyl-1,2-benzisothiazolin-3-one]
Qa (First Component A) [1]: 8 and 10
Qa (concentration of First Component A = MBIT at the end point) [1]: 7.5
SI (synergy index) [1]: 1.00
Qa (First Component A) [1, 4]: 8
SI (synergy index) [1, 4]: 1.00
Qa (First Component A) [1, 5]: 10
SI (synergy index) [1, 5]: 1.00
Qa (First Component A) [1, 6]: 8
SI (synergy index) [1, 6]: 1.00
Qa (First Component A) [1, 7]: 10
SI (synergy index) [1, 7]: 1.00
Qa (First Component A) [1, 8]: 10
SI (synergy index) [1, 8]: 1.00
Qa (First Component A) [1, 9]: 10
SI (synergy index) [1, 9]: 1.00
Qa (First Component A) [1, 10]: 10
SI (synergy index) [1, 10]: 1.00
Qa (First Component A) [1, 11]: 7.5
SI (synergy index) [1, 11]: 1.00
Qa (First Component A) [1, 12]: 10
SI (synergy index) [1, 12]: 1.00
SI (synergy index) [1, 13]: 1.00
Qa (concentration of MBIT producing the end point, MIC) [1, 13]: 7.5 ppm and 10 ppm and 15 ppm and 8 ppm
SI (synergy index) [1, 14]: 1.00
Qa (concentration of MBIT producing the end point, MIC) [1, 14]: 7.5 ppm and 10 ppm
SI (synergy index) [1, 15]: 1.00
Qa (concentration of MBIT producing the end point, MIC) [1, 15]: 15 ppm
Qa (First Component A) [2]: 30 and 40
Qa (concentration of First Component A = MBIT at the end point) [2]: 40
SI (synergy index) [2]: 1.00
SI (synergy index) ([2]; A. niger 16404, PDB, 3 days): 1.00
Qa (concentration of MBIT producing the end point, MIC) ([2]; A. niger 16404, PDB, 3 days): 40 ppm and 20 ppm and 30 ppm
SI (synergy index) ([2]; A. niger 16404, PDB, 4 days): 1.00
Qa (concentration of MBIT producing the end point, MIC) ([2]; A. niger 16404, PDB, 4 days): 30 ppm and 40 ppm
SI (synergy index) ([2]; A. niger 16404, PDB, 7 days): 1.00
Qa (concentration of MBIT producing the end point, MIC) ([2]; A. niger 16404, PDB, 7 days): 50 ppm and 60 ppm
Qa (First Component A) [2, 16]: 30
SI (synergy index) [2, 16]: 1.00
Qa (First Component A) [2, 17]: 40
SI (synergy index) [2, 17]: 1.00
Qa (First Component A) [2, 18]: 30
SI (synergy index) [2, 18]: 1.00
Qa (First Component A) [2, 19]: 50
SI (synergy index) [2, 19]: 1.00
Qa (First Component A) [2, 20]: 50
SI (synergy index) [2, 20]: 1.00
Qa (First Component A) [2, 21]: 20
SI (synergy index) [2, 21]: 1.00
Qa (First Component A) [2, 22]: 20
SI (synergy index) [2, 22]: 1.00
Qa (First Component A) [2, 23]: 40
SI (synergy index) [2, 23]: 1.00
Qa (First Component A) [2, 24]: 30
SI (synergy index) [2, 24]: 1.00
Qa (First Component A) [3]: 10 and 7.5
Qa (concentration of First Component A = MBIT at the end point) [3]: 10
SI (synergy index) [3]: 1.00
Qa (First Component A) [3, 25]: 10
SI (synergy index) [3, 25]: 1.00
Qa (First Component A) [3, 26]: 10
SI (synergy index) [3, 26]: 1.00
Qa (First Component A) [3, 27]: 100
SI (synergy index) [3, 27]: 1.00
Qa (First Component A) [3, 28]: 10
SI (synergy index) [3, 28]: 1.00
Qa (First Component A) [3, 29]: 10
SI (synergy index) [3, 29]: 1.00
Qa (First Component A) [3, 30]: 10
SI (synergy index) [3, 30]: 1.00
Qa (First Component A) [3, 31]: 15
SI (synergy index) [3, 31]: 1.00
Qa (First Component A) [3, 32]: 10
SI (synergy index) [3, 32]: 1.00
Qa (First Component A) [3, 33]: 15
SI (synergy index) [3, 33]: 1.00
SI (synergy index) ([3]; E. coli 8739, M9GY, 24 hours): 1.00
Qa (concentration of MBIT producing the end point, MIC) ([3]; E. coli 8739, M9GY, 24 hours): 10 ppm and 15 ppm
SI (synergy index) ([3]; E. coli 8739, M9GY, 48 hours): 1.00
Qa (concentration of MBIT producing the end point, MIC) ([3]; E. coli 8739, M9GY, 48 hours): 20 ppm and 15 ppm
SI (synergy index) ([3]; E. coli 8739, M9GY, 72 hours): 1.00
Qa (concentration of MBIT producing the end point, MIC) ([3]; E. coli 8739, M9GY, 72 hours): 15 ppm
